What was measured:
[1] = xn = mol fraction of the nth substance listed; details: 101.32 kPa, Liquid
[2] = excess molar enthalpy (molar enthalpy of mixing); xn = mol fraction of the nth substance listed; details: 101.32 kPa, Liquid

CCCOC=O [propyl methanoate] + CCCCCC
Details	excess molar enthalpy [kJ/mol]	mass density [kg/m3]
[1], 291.15 K, x1 = 0.0544	–	670.1
[1], 291.15 K, x1 = 0.0893	–	676
[1], 291.15 K, x1 = 0.1509	–	687.4
[1], 291.15 K, x1 = 0.2001	–	696.5
[1], 291.15 K, x1 = 0.248	–	705.8
[1], 291.15 K, x1 = 0.2521	–	706.6
[1], 291.15 K, x1 = 0.3979	–	737.6
[1], 291.15 K, x1 = 0.5017	–	761.8
[1], 291.15 K, x1 = 0.6122	–	789.6
[1], 291.15 K, x1 = 0.6985	–	813.1
[1], 291.15 K, x1 = 0.7473	–	827
[1], 291.15 K, x1 = 0.8013	–	842.8
[1], 291.15 K, x1 = 0.8499	–	857.8
[1], 291.15 K, x1 = 0.9057	–	875.5
[1], 291.15 K, x1 = 0.9568	–	892.9
[1], 291.15 K, x1 = 1	–	907.8
[1], 298.15 K, x1 = 0.0787	–	668.91
[1], 298.15 K, x1 = 0.1478	–	681.52
[1], 298.15 K, x1 = 0.2237	–	695.63
[1], 298.15 K, x1 = 0.2941	–	709.36
[1], 298.15 K, x1 = 0.3597	–	722.93
[1], 298.15 K, x1 = 0.4297	–	738.37
[1], 298.15 K, x1 = 0.4878	–	751.68
[1], 298.15 K, x1 = 0.5453	–	765.36
[1], 298.15 K, x1 = 0.6019	–	779.74
[1], 298.15 K, x1 = 0.6599	–	794.74
[1], 298.15 K, x1 = 0.7154	–	810
[1], 298.15 K, x1 = 0.765	–	824.15
[1], 298.15 K, x1 = 0.812	–	838.34
[1], 298.15 K, x1 = 0.8656	–	854.66
[1], 298.15 K, x1 = 0.921	–	872.18
[1], 298.15 K, x1 = 0.9567	–	884.05
[1], 298.15 K, x1 = 1	–	899.08
[1], 308.15 K, x1 = 0.0693	–	657.5
[1], 308.15 K, x1 = 0.1125	–	665.1
[1], 308.15 K, x1 = 0.1993	–	680.76
[1], 308.15 K, x1 = 0.3036	–	701.12
[1], 308.15 K, x1 = 0.3975	–	720.81
[1], 308.15 K, x1 = 0.5069	–	745.56
[1], 308.15 K, x1 = 0.5902	–	765.82
[1], 308.15 K, x1 = 0.7035	–	795.66
[1], 308.15 K, x1 = 0.8034	–	824.55
[1], 308.15 K, x1 = 0.9002	–	854.72
[1], 308.15 K, x1 = 0.9482	–	870.44
[1], 308.15 K, x1 = 1	–	888.36
[1], 318.15 K, x1 = 0.0796	–	648.93
[1], 318.15 K, x1 = 0.1547	–	661.76
[1], 318.15 K, x1 = 0.2278	–	674.93
[1], 318.15 K, x1 = 0.2909	–	687.08
[1], 318.15 K, x1 = 0.3611	–	701.46
[1], 318.15 K, x1 = 0.4273	–	715.75
[1], 318.15 K, x1 = 0.487	–	729.26
[1], 318.15 K, x1 = 0.5747	–	750.24
[1], 318.15 K, x1 = 0.6031	–	757.34
[1], 318.15 K, x1 = 0.6617	–	772.47
[1], 318.15 K, x1 = 0.7118	–	785.91
[1], 318.15 K, x1 = 0.7661	–	801.18
[1], 318.15 K, x1 = 0.8123	–	814.59
[1], 318.15 K, x1 = 0.8602	–	829.22
[1], 318.15 K, x1 = 0.9109	–	845.53
[1], 318.15 K, x1 = 0.9581	–	860.97
[1], 318.15 K, x1 = 1	–	875.32
[2], 291.15 K, x1 = 0.0969	0.492	–
[2], 291.15 K, x1 = 0.186	0.783	–
[2], 291.15 K, x1 = 0.2656	0.983	–
[2], 291.15 K, x1 = 0.3316	1.11	–
[2], 291.15 K, x1 = 0.3921	1.18	–
[2], 291.15 K, x1 = 0.4458	1.21	–
[2], 291.15 K, x1 = 0.4941	1.22	–
[2], 291.15 K, x1 = 0.5356	1.2	–
[2], 291.15 K, x1 = 0.5758	1.15	–
[2], 291.15 K, x1 = 0.6321	1.08	–
[2], 291.15 K, x1 = 0.6905	0.964	–
[2], 291.15 K, x1 = 0.7533	0.815	–
[2], 291.15 K, x1 = 0.8171	0.643	–
[2], 291.15 K, x1 = 0.885	0.415	–
[2], 291.15 K, x1 = 0.9453	0.192	–
[2], 318.15 K, x1 = 0.0848	0.473	–
[2], 318.15 K, x1 = 0.1889	0.846	–
[2], 318.15 K, x1 = 0.2934	1.12	–
[2], 318.15 K, x1 = 0.3854	1.28	–
[2], 318.15 K, x1 = 0.4624	1.34	–
[2], 318.15 K, x1 = 0.521	1.34	–
[2], 318.15 K, x1 = 0.5945	1.29	–
[2], 318.15 K, x1 = 0.6631	1.19	–
[2], 318.15 K, x1 = 0.7368	1.03	–
[2], 318.15 K, x1 = 0.8154	0.794	–
[2], 318.15 K, x1 = 0.8906	0.518	–
[2], 318.15 K, x1 = 0.9523	0.249	–

— the NIST ThermoML archive (doi:10.1021/je060355j)
